Assay results from patent US20080166427A1, “Method for Reducing Gastrointestinal Toxicity Due to the Administration of Tegafur” (Taiho Pharmaceutical Co., Ltd, priority 2004, published 2008).

Assays:
clinical = format: in vivo, human
Procedure: The patient's diagnosis were CRC (7), breast (3), gastric (3) and other (4).
A total of 17 patients were entered in this pharmacokinetic study after informed consent.
Blood was sampled during 24 hours. […] Blood samples were taken by venipuncture in heparinized tubes of 9 ml and transported on ice for immediate processing.
Blood samples were centrifuged for 5 min at 4000 rpm and 4° C. The plasma was transferred to 2 eppendorf vials of 2 ml and stored at −20° C.
Analysis for tegafur and cyanuric acid was performed by validated HPLC assays, while the analysis of the other compounds was performed after derivatization by validated gas-chromatography-mass spectrometry methods as described previously [Peters G. J., Noordhuis P., Van Kuilenburg A. B. P., Schornagel J. H., Gall H., Turner S. L., Swart M. S., Voorn D., Van Gennip A. H., Wanders J., Holwerda U., Smid K., Giaccone G., Fumoleau P. and Van Groeningen C. […] Cancer Chemother. Pharmacol., 38: 1-12, 2003.].
The pharmacokinetic parameters for tegafur, 5FU, oxonic acid, cyan uric acid, and CDHP were calculated with the computer program WinNonLin (version 1.5). The data were analyzed using non-compartment modeling. The parameters that could be established were: time point of maximum observed concentration in plasma (Tmax), concentration in plasma corresponding to Tmax (Cmax), terminal half-life (t½), area under the plasma concentration versus time (C-t) curve (AUCall).

[1] = target: T1, dihydropyrimidine dehydrogenase (DPD) (Homo sapiens, UniProt Q12882); assay: Inhibition of dihydropyrimidine dehydrogenase; format: biochemical; details: vs uracil
T1 sequence (Q12882 4-1025): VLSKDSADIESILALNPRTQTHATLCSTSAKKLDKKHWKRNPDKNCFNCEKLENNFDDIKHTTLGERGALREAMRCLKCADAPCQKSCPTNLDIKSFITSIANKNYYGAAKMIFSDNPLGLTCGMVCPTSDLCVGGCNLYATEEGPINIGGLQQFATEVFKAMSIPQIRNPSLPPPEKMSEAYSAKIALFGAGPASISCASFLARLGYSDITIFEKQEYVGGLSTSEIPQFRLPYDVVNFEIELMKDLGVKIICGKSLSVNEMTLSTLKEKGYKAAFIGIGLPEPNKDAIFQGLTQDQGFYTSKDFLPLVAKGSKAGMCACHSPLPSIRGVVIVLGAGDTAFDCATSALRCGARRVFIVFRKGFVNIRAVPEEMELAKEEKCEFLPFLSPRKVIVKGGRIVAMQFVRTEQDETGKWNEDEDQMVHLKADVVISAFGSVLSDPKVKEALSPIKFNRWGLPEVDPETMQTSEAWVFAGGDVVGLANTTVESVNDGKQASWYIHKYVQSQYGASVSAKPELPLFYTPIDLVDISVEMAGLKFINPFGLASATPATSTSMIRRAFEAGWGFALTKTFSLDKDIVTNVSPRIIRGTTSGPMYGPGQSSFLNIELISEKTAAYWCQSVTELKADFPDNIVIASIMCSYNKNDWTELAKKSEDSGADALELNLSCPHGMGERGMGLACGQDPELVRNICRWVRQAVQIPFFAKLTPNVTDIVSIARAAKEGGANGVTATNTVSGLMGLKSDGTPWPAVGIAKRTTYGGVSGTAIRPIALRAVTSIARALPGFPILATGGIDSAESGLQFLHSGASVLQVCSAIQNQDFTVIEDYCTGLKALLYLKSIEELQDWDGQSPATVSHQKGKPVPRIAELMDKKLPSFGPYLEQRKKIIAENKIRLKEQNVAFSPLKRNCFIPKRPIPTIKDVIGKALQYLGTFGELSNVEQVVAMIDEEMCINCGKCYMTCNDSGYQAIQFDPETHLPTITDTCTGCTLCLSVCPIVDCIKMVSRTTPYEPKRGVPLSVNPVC
From the text: It is gradually converted to 5-FU in vivo. • CDHP inhibits the catabolism of 5-FU by reversibly inhibiting the enzyme of dihydropyrimidine dehydrogenase (DPD). […] CDHP helps maintain effective blood and tumor concentrations of 5-FU for a prolonged period thus potentially achieving a similar therapeutic effect as protracted infusion of 5-FU. • Oxo blocks phosphorylation of 5-FU by orotate phosphoribosyltransferase (OPRT) in the gastrointestinal tract. […] Oxo is acid labile and thus its bioavailability is affected by food intake.

advanced gastric cancer = details: in vivo
[2] = human, in vivo, po, 35 mg/m2, AUCall
[3] = human, in vivo, po, 35 mg/m2, Cmax
[4] = human, in vivo, po, 35 mg/m2, t½
[5] = human, in vivo, po, 35 mg/m2, Tmax
[6] = comparison fasting vs feeding group, S-1 35 mg/m^2

Row | SMILES | AUC (clinical; [2]) [ng·h/mL] | Cmax (clinical; [3]) [ng/mL] | half-life (clinical; [4]) [h] | Tmax, without breakfast vs after breakfast (clinical; in vivo) | t½, fasting vs feeding group (clinical; in vivo) | Tmax (clinical; [5]) [h] | other results
1 | O=c1[nH]c(=O)n(C2CCCO2)cc1F (racemic) [FT, 5-Fluoro-1-[(RS)-tetrahydrofuran-2-yl]pyrimidine-2,4-(1H,3H)-dione, reference compound] | 15700 | 2370 | 8.6 | earlier without breakfast | no significant difference |  | Tmax (clinical; human, in vivo, po, 35 mg/m2): 0.6 h
2 | O=c1[nH]cc(F)c(=O)[nH]1 [5-FU, 5-fluorouracil, reference compound] | 1100 | 210 | 2.2 | reached earlier without breakfast | no significant difference | 1.8 | 
3 | O=c1[nH]c(=O)[nH]c(=O)[nH]1 [CA, cyanuric acid] |  |  |  |  |  |  | AUCall, fasting vs feeding group (clinical; [6]): higher values in the feeding group as compared to the fasting group; Cmax, fasting vs feeding group (clinical; [6]): not significantly different; Tmax, without breakfast vs after breakfast (clinical; [6]): faster Tmax without breakfast; t½, fasting vs feeding group (clinical; [6]): not significantly different; AUC (clinical; human, in vivo, po, 35 mg/m2, plasma, mean, S-1 35 mg/m^2 oral, fasted patients, read-out: AUCall): 517 ng·h/mL; Cmax (clinical; human, in vivo, po, 35 mg/m2, plasma, mean, S-1 35 mg/m^2 oral, fasted patients, read-out: Cmax): 118 ng/mL; Tmax (clinical; human, in vivo, po, 35 mg/m2, plasma, mean, S-1 35 mg/m^2 oral, fasted patients, read-out: Tmax): 1.3 h; half-life (clinical; human, in vivo, po, 35 mg/m2, plasma, mean, S-1 35 mg/m^2 oral, fasted patients, read-out: t½ (converted)): 5.3 h; AUC (clinical; human, in vivo, po, 35 mg/m2, plasma, mean, S-1 35 mg/m^2 oral, fed patients, read-out: AUCall): 1220 ng·h/mL; Cmax (clinical; human, in vivo, po, 35 mg/m2, plasma, mean, S-1 35 mg/m^2 oral, fed patients, read-out: Cmax): 160 ng/mL; Tmax (clinical; human, in vivo, po, 35 mg/m2, plasma, mean, S-1 35 mg/m^2 oral, fed patients, read-out: Tmax): 3.5 h; half-life (clinical; human, in vivo, po, 35 mg/m2, plasma, mean, S-1 35 mg/m^2 oral, fed patients, read-out: t½ (converted)): 6.7 h
4 | Oc1cc(O)c(Cl)cn1 [CDHP, 5-chloro-2,4-dihydroxypyridine] | 1920 | 464 | 4.5 | reached earlier without breakfast | no significant difference | 1.1 | potency of DPD inhibition relative to uracil [1]: 180 fold
5 | O=C(O)c1nc(=O)[nH]c(=O)[nH]1 [Oxo, potassium oxonate] |  |  | 3.9 | significantly faster without breakfast | not significantly different | 1.6 | effect of food on bioavailability (clinical; human, in vivo, po): profound effect; AUCall (clinical; human, in vivo, po, 35 mg/m2): 808.7 ng·h/mL; Cmax (clinical; human, in vivo, po, 35 mg/m2): 158.1 ng/mL
6 | N.N.[Cl][Pt][Cl] [cisplatin] |  |  |  |  |  |  | recommended dose for the phase II portion (advanced gastric cancer): 60 mg/m^2
